Several values for one entry are separate records, joined by “and”; a condition that tells them apart may be missing. Equal entries are not always repeated. Marks after values point to notes of the source that are not given here.
Experiments:
Assay type in all cases: physicochemical
[1] = Initial solubility screening in water-miscible solvents (filtrate assayed by UV absorbance at 420.6 nm)
Method: (§1) Initial solubility screening tests were therefore carried out to determine the solubility of MTL-005 in various water-miscible solvents. The screening tests were carried out by dissolving the MTL-005 in the test solvent, filtering the resulting solution to remove any undissolved materials and assaying the filtrate by measuring the UV absorbance at 420.6 nm.

[2] = Solubility in mixtures of DMA and water
Method: as §1
In order to assess the suitability of DMA solutions of MTL-005 for administration by aqueous infusion, the solubility of MTL-005 in mixtures of DMA and water was assessed using the assay method described above.

[3] = Solubility in DMA/co-solvent mixtures
Method: as §1
According to the invention, water-miscible co-solvents are added to the DMA in order to improve the solubility of the MTL-005 when the formulation is diluted with water. Tests were therefore carried out to determine the solubility of MTL-005 in various DMA/co-solvent mixtures using the methods described above.
In the first series of tests, approximately 50 mg/ml MTL-005 was added to a range of cosolvent vehicles. A solubility in the region of 50 mg/ml was obtained for a range of vehicles (see results in column 1 in Table 3 below), therefore it could not be confirmed that saturated solutions were obtained. The work was therefore repeated at a higher MTL-005 loading of 150 mg/ml (see results in column 2 of Table 3).

Stability studies = experiment: Stability studies

Copper meso-5,15-bis[3-[(1,2-dicarba-closo-dodecaboranyl)-methoxy]-phenyl]-meso-10,20-dinitroporphyrin [MTL-005]
Total MTL-005 dissolved ([1]; solvent: Absolute ethanol): 0.089 mg/mL
Total MTL-005 dissolved ([1]; solvent: Benzyl alcohol): 0.91 mg/mL
Total MTL-005 dissolved ([1]; solvent: Cremophor EL 5% aq): 0.24 mg/mL
Total MTL-005 dissolved ([1]; solvent: Cremophor EL 10% aq): 0.27 mg/mL
Total MTL-005 dissolved ([1]; solvent: Cremophor EL 10% aq(heated)): 1.65 mg/mL
Total MTL-005 dissolved ([1]; solvent: DMA 10% w/v aq): 0.13 mg/mL
Total MTL-005 dissolved ([1]; solvent: DMA 10%, Cremophor EL 5% aq): 0.30 mg/mL
Total MTL-005 dissolved ([1]; solvent: DMA diluted 1 in 10 with Solutol HS15 20% w/v aq): 1.44 mg/mL
Total MTL-005 dissolved ([1]; solvent: Deionised water): 0.001 mg/mL
Total MTL-005 dissolved ([1]; solvent: Glycofurol): 8.68 mg/mL
Total MTL-005 dissolved ([1]; solvent: Macrogol 300): 2.60 mg/mL
Total MTL-005 dissolved ([1]; solvent: N,N-Dimethylacetamide (DMA), result close to concentration in sample, solubility may be greater): 74.08* mg/ml
Total MTL-005 dissolved ([1]; solvent: Polysorbate 20 (5% w/v aq)): 0.27 mg/mL
Total MTL-005 dissolved ([1]; solvent: Polysorbate 20 (10% w/v aq)): 0.13 mg/mL
Total MTL-005 dissolved ([1]; solvent: Polysorbate 20 (20% w/v aq)): 0.13 mg/mL
Total MTL-005 dissolved ([1]; solvent: Polysorbate 20, result close to concentration in sample, solubility may be greater): 5.88* mg/ml
Total MTL-005 dissolved ([1]; solvent: Polysorbate 80 5%, Cremophor EL 5% aq): 0.28 mg/mL
Total MTL-005 dissolved ([1]; solvent: Polysorbate 80 5%, DMA 10% aq): 0.45 mg/mL
Total MTL-005 dissolved ([1]; solvent: Polysorbate 80 5%, DMA 10%, Cremophor EL 5% aq): 0.35 mg/mL
Total MTL-005 dissolved ([1]; solvent: Polysorbate 80 (5% w/v aq)): 0.15 mg/mL and 0.22 mg/mL
Total MTL-005 dissolved ([1]; solvent: Polysorbate 80 (10% w/v aq)): 0.25 mg/mL
Total MTL-005 dissolved ([1]; solvent: Polysorbate 80 (20% w/v aq)): 0.38 mg/mL
Total MTL-005 dissolved ([1]; solvent: Propylene glycol): 0.019 mg/mL
Total MTL-005 dissolved ([1]; solvent: Solutol HS15): 11.50 mg/mL
Total MTL-005 dissolved ([1]; solvent: Solutol HS15 (5% w/v aq)): 0.08 mg/mL
Total MTL-005 dissolved ([1]; solvent: Solutol HS15 (10% w/v aq)): 0.10 mg/mL
Total MTL-005 dissolved ([1]; solvent: Solutol HS15 (20% w/v aq)): 0.16 mg/mL
Total MTL-005 dissolved ([1]; solvent: Soyabean oil): 0.59 mg/mL
Total MTL-005 dissolved ([1]; solvent: pH 7 Britton Robinson buffer): 0.0016 mg/mL
Solubility ([2]; vehicle: 20% DMA/80% Water, 5 mg/ml added): <0.05 mg/mL
Solubility ([2]; vehicle: 40% DMA/60% Water, 5 mg/ml added): <0.05 mg/mL
Solubility ([2]; vehicle: 60% DMA/40% Water, 20 mg/ml added): <0.05 mg/mL
Solubility ([2]; vehicle: 80% DMA/20% Water, 18 mg/ml added): <0.05 mg/mL
Solubility ([2]; vehicle: 100% DMA, 92.5 mg/ml added): >90 mg/mL
Total MTL-005 dissolved (50 mg/ml added) ([3]; DMA 60%, Macrogol 300 40%): 34 mg/mL
Total MTL-005 dissolved (50 mg/ml added) ([3]; DMA 60%, Propylene Glycol 40%): 4 mg/mL
Total MTL-005 dissolved (50 mg/ml added) ([3]; DMA 60%, Solutol HS 40%, may not be saturated): 51 mg/mL
Total MTL-005 dissolved (150 mg/ml added) ([3]; DMA 60%, Solutol HS 40%): 58 mg/mL
Total MTL-005 dissolved (50 mg/ml added) ([3]; DMA 60%, Tetraglycol 40%, may not be saturated): 53 mg/mL
Total MTL-005 dissolved (150 mg/ml added) ([3]; DMA 60%, Tetraglycol 40%): 94 mg/mL
Total MTL-005 dissolved (50 mg/ml added) ([3]; DMA 60%, Tween 20 40%, may not be saturated): 47 mg/mL
Total MTL-005 dissolved (150 mg/ml added) ([3]; DMA 60%, Tween 20 40%): 37 mg/mL
Total MTL-005 dissolved (150 mg/ml added) ([3]; DMA 70%, Solutol HS 20%, Macrogol 300 10%): 74 mg/mL
Total MTL-005 dissolved (150 mg/ml added) ([3]; DMA 70%, Solutol HS 30%): 70 mg/mL
Total MTL-005 dissolved (50 mg/ml added) ([3]; DMA 80%, Macrogol 300 10%, Propylene Glycol 10%, may not be saturated): 48 mg/mL
Total MTL-005 dissolved (50 mg/ml added) ([3]; DMA 80%, Macrogol 300 10%, Tetraglycol 10%, may not be saturated): 49 mg/mL
Total MTL-005 dissolved (50 mg/ml added) ([3]; DMA 80%, Macrogol 300 20%, may not be saturated): 50 mg/mL
Total MTL-005 dissolved (150 mg/ml added) ([3]; DMA 80%, Macrogol 300 20%): 76 mg/mL
Total MTL-005 dissolved (50 mg/ml added) ([3]; DMA 80%, Propylene Glycol 20%): 27 mg/mL
Total MTL-005 dissolved (50 mg/ml added) ([3]; DMA 80%, Solutol HS 10%, Macrogol 300 10%, may not be saturated): 49 mg/mL
Total MTL-005 dissolved (150 mg/ml added) ([3]; DMA 80%, Solutol HS 10%, Macrogol 300 10%): 95 mg/mL
Total MTL-005 dissolved (50 mg/ml added) ([3]; DMA 80%, Solutol HS 10%, Propylene Glycol 10%, may not be saturated): 50 mg/mL
Total MTL-005 dissolved (150 mg/ml added) ([3]; DMA 80%, Solutol HS 10%, Propylene Glycol 10%): 58 mg/mL
Total MTL-005 dissolved (50 mg/ml added) ([3]; DMA 80%, Solutol HS 10%, Tetraglycol 10%, may not be saturated): 49 mg/mL
Total MTL-005 dissolved (150 mg/ml added) ([3]; DMA 80%, Solutol HS 10%, Tetraglycol 10%): 113 mg/mL
Total MTL-005 dissolved (50 mg/ml added) ([3]; DMA 80%, Solutol HS 20%, may not be saturated): 49 mg/mL
Total MTL-005 dissolved (150 mg/ml added) ([3]; DMA 80%, Solutol HS 20%): 115 mg/mL
Total MTL-005 dissolved (50 mg/ml added) ([3]; DMA 80%, Tetraglycol 10%, Propylene Glycol 10%, may not be saturated): 50 mg/mL
Total MTL-005 dissolved (50 mg/ml added) ([3]; DMA 80%, Tetraglycol 20%, may not be saturated): 52 mg/mL
Total MTL-005 dissolved (150 mg/ml added) ([3]; DMA 80%, Tetraglycol 20%): 131 mg/mL
Total MTL-005 dissolved (50 mg/ml added) ([3]; DMA 80%, Tween 20 10%, Macrogol 300 10%, may not be saturated): 50 mg/mL
Total MTL-005 dissolved (150 mg/ml added) ([3]; DMA 80%, Tween 20 10%, Macrogol 300 10%): 83 mg/mL
Total MTL-005 dissolved (50 mg/ml added) ([3]; DMA 80%, Tween 20 10%, Propylene Glycol 10%, may not be saturated): 49 mg/mL
Total MTL-005 dissolved (150 mg/ml added) ([3]; DMA 80%, Tween 20 10%, Propylene Glycol 10%): 79 mg/mL
Total MTL-005 dissolved (50 mg/ml added) ([3]; DMA 80%, Tween 20 10%, Solutol HS 10%, may not be saturated): 52 mg/mL
Total MTL-005 dissolved (50 mg/ml added) ([3]; DMA 80%, Tween 20 10%, Tetraglycol 10%, may not be saturated): 48 mg/mL
Total MTL-005 dissolved (150 mg/ml added) ([3]; DMA 80%, Tween 20 10%, Tetraglycol 10%): 101 mg/mL
Total MTL-005 dissolved (50 mg/ml added) ([3]; DMA 80%, Tween 20 20%, may not be saturated): 51 mg/mL
Total MTL-005 dissolved (150 mg/ml added) ([3]; DMA 80%, Tween 20 20%): 91 mg/mL
Stability as a dry powder (Stability studies; dry powder): relatively stable as a dry powder
Stability in solution (Stability studies; in solution): not stable for extended periods in solution

— US9358290B2, “Pharmaceutical formulations” (MOREX DEVELOPMENT PARTNERS LLP, priority 2012, dated 2016)
